This note sets out measurements from US10301305B2 (priority 2014, dated 2019).

pIC50: −log10 of the molar value. Where a name gives a salt, the structure may show the parent alone.

Holding throughout (format): biochemical
In one assay the target is S. Agalactiae DltA (Streptococcus agalactiae serotype III (strain NEM316), UniProt Q8VM67). Kind of assay: in vitro DltA activity assay (luminescence), S. agalactiae DltA. The settings on record: recombinant DltA, 30 min pre-incubation, 0.5 mM D-Alanine, 0.5-5 μM ATP; read-out: S. Agalactiae DltA IC50. The method, then:
(§1) The effect of the compounds of the invention on DltA enzymes has been based on the measure of their inhibition of DltA activity in vitro. To this end, recombinant proteins DltA were expressed and purified after cloning of the genes of S. aureus, E. faecalis, E. faecium and S. agalactiae as described thereafter. The capacity of the compounds of the invention to inhibit DltA enzymatic activity was assessed using the DltA assays as described below:
(§2) The dltA gene was amplified from chromosomal DNA of S. aureus, E. faecalis, E. faecium and S. agalactiae and introduced into E. coli BL21 (Invitrogen, Carlsbad, Calif.) following manufacturer's instruction. Bacteria were grown at 37° C. under aerobic conditions and isopropyl-beta-D-thiogalactopyranoside (IPTG) was added to 0.5-1 mM when OD600 of the bacterial culture had reached 0.5. After a further incubation for 3 hours, cells were harvested by centrifugation. Purification of the recombinant DltA protein was performed by affinity chromatography on nickel-nitrilotriacetic acid (Ni-NTA) column following manufacturer's instructions (Qiagen). Fractions containing recombinant DltA protein were adjusted to 50% glycerol and stored at −20° C. until use.
(§3) The binding potency of the inhibitors against DltA enzyme was assessed by IC50 determination in an in vitro DltA activity assay. The assay buffer “AB” contained 50 mM Hepes pH8.0, 10 mM MgCl2, 50 mM KCl, 0.012% Triton-X100, 10 mM DTT and 100 nM Myelin-basic protein. The following components were added in a white polystyrene Costar plate up to a final volume of 30 μL: 3 μL DMSO, or inhibitor dissolved in DMSO and 27 μL DltA enzyme in AB. After 30 min of pre-incubation at room temperature, 30 μL of Substrates mix in AB were added in each well to a final volume of 60 μL. This reaction mixture was then composed of DltA (produced in house from S. aureus, E. faecalis, E. faecium and S. agalactiae), 0.5 mM D-Alanine (Sigma), 0.5-5 μM ATP (Sigma) and 0.05 u/ml inorganic pyrophosphatase (Sigma) in assay buffer. After typically 1-2 hours of incubation at room temperature (conversion rate around 30%), 30 μL of the revelation mix were added to a final volume of 90 μL, including the following constituents at the respective final concentrations: 10000 u/ml luciferase (Sigma), 30 μM D-luciferin (Sigma), 100 μM N-acetylcysteamine (Aldrich). Luminescence intensity was immediately measured on a Fluostar Optima (BMG) (excitation 360 nm, emission 520 nm) and converted into inhibition percentages. For IC50 determinations (Inhibitory Concentration 50%) the inhibitor was added at 6 to 10 different concentrations and the related inhibitions were fitted to a classical Langmuir equilibrium model using XLFIT (IDBS).
(§4) For compounds interfering with the luminescent signal (quenching), the same experiment without DltA enzyme was performed to allow quenching determination and correction.

For a further assay, the target named is S. aureus DltA (Staphylococcus aureus (strain NCTC 8325 / PS 47), UniProt Q2FZW6). Kind of assay: in vitro DltA activity assay (luminescence), S. aureus DltA. The settings on record: recombinant DltA, 30 min pre-incubation, 0.5 mM D-Alanine, 0.5-5 μM ATP; read-out: S. aureus DltA IC50. The method, then: as §1, §2, §3, §4
A further assay addresses E. feacalis DltA (Enterococcus faecalis, UniProt Q830N0). As to the kind of experiment: in vitro DltA activity assay (luminescence), E. faecalis DltA. To be noted: recombinant DltA, 30 min pre-incubation, 0.5 mM D-Alanine, 0.5-5 μM ATP; read-out: E. feacalis DltA IC50. The method, then:
as §1, §2, §3, §4

In the next assay the target is E. feacium DltA (Enterococcus faecium, UniProt Q3XZT7). As to the kind of experiment: in vitro DltA activity assay (luminescence), E. faecium DltA. The settings on record: recombinant DltA, 30 min pre-incubation, 0.5 mM D-Alanine, 0.5-5 μM ATP; read-out: E. feacium DltA IC50. The method, then:
as §1, §2, §3, §4

Sequence of E. feacium DltA (Q3XZT7 1-504): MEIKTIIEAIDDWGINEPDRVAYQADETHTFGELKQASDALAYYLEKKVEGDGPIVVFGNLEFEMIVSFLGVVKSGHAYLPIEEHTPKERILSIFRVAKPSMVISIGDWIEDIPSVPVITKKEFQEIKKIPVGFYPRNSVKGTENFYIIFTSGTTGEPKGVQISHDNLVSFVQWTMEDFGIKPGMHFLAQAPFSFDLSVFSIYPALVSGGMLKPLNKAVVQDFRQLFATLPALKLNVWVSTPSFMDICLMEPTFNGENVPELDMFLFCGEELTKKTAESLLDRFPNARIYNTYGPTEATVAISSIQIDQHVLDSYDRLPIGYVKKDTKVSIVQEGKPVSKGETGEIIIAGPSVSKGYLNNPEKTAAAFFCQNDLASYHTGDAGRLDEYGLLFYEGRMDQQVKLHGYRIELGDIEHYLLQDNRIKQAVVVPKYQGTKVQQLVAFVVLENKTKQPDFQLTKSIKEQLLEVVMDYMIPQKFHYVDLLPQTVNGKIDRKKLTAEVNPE
Sequence of E. feacalis DltA (Q830N0 1-506): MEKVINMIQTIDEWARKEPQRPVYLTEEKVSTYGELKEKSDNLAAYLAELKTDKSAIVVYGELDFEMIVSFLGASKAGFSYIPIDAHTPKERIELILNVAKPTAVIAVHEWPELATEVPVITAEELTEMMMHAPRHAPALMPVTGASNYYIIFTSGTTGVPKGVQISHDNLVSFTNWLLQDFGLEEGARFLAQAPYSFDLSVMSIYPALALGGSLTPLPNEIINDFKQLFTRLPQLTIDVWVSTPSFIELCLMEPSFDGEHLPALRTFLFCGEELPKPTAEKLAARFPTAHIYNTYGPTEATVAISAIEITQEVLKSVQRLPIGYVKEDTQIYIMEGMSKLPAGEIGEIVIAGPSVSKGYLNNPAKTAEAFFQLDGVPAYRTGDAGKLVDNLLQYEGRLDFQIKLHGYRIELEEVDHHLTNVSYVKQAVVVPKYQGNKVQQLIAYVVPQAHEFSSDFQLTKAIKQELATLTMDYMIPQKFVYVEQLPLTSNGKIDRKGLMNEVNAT

For `C[C@H]1CCCC(n2cnc3cc(-c4cc(N(C)CCN(C)C)c(C(N)=O)c5[nH]cnc45)ccc32)C1` (mixture of isomers) [Example 136], the pIC50 (in general, the IC50 on a negative log10 scale, so that one unit is a factor of ten) at S. Agalactiae DltA was 6.44; on S. aureus DltA it was 8.24.
For `OC[C@H]1CCN(c2cc(-c3ccc4c(c3)ncn4C3CCCCC3)c3nc[nH]c3n2)C[C@@H]1O` [Example 2, (3R,4R)-1-[7-(1-Cyclohexyl-1H-benzimidazol-5-yl)-3H-imidazo[4,5-b]pyridin-5-yl]-4-hydroxymethyl-piperidin-3-ol], the pIC50 on S. Agalactiae DltA is 6.30; on E. feacalis DltA it was 7.74; at S. aureus DltA, 7.18; at E. feacium DltA, 7.07.
The corresponding values for `OCC1CCN(c2cc(-c3ccc4c(c3)ncn4C3CCCCC3)c3nc[nH]c3n2)CC1` [Example 3, {1-[7-(1-Cyclohexyl-1H-benzimidazol-5-yl)-3H-imidazo[4,5-b]pyridin-5-yl]-piperidin-4-yl}-methanol] are 5.85, 7.28, 6.70 and 7.00.
The matching figures for `OCCNc1cc(-c2ccc3c(c2)ncn3C2CCCCC2)c2nc[nH]c2n1` [Example 4, 2-[7-(1-Cyclohexyl-1H-benzimidazol-5-yl)-3H-imidazo[4,5-b]pyridin-5-ylamino]-ethanol]: 5.51, 6.42, 6.28 and 5.66.
The matching figures for `OCC1(CO)CCN(c2cc(-c3ccc4c(c3)ncn4C3CCCCC3)c3nc[nH]c3n2)CC1` [Example 6, {1-[7-(1-Cyclohexyl-1H-benzimidazol-5-yl)-3H-imidazo[4,5-b]pyridin-5-yl]-4-hydroxymethyl-piperidin-4-yl}-methanol]: 6.74, 7.74, 7.96 and 7.54.
As to `OCCC1CCN(c2cc(-c3ccc4c(c3)ncn4C3CCCCC3)c3nc[nH]c3n2)C1` (centres unmarked) [Example 10, 2-{1-[7-(1-Cyclohexyl-1H-benzimidazol-5-yl)-3H-imidazo[4,5-b]pyridin-5-yl]-pyrrolidin-3-yl}-ethanol], the pIC50 is 5.42 at S. Agalactiae DltA, 7.14 on E. feacalis DltA, 6.80 at S. aureus DltA and 6.92 on E. feacium DltA.
The corresponding values for `c1nc2c(-c3ccc4c(c3)ncn4C3CCCCC3)cc(N3CC4CNCC4C3)nc2[nH]1` (centres unmarked) [Example 11, 7-(1-Cyclohexyl-1H-benzimidazol-5-yl)-5-(hexahydro-pyrrolo[3,4-c]pyrrol-2-yl)-3H-imidazo[4,5-b]pyridine] are 6.59, 7.72, 8.85 and 7.52.
The matching figures for `OC[C@H]1CCN(c2cc3[nH]cnc3c(-c3ccc4c(c3)ncn4C3CCCCC3)n2)C[C@@H]1O` [Example 19, (3R,4R)-1-[4-(1-Cyclohexyl-1H-benzimidazol-5-yl)-1H-imidazo[4,5-c]pyridin-6-yl]-4-hydroxymethyl-piperidin-3-ol]: 5.72, 6.34, 7.48 and 5.74.
The matching figures for `OCC1(CO)CCN(c2cc3[nH]cnc3c(-c3ccc4c(c3)ncn4C3CCCCC3)n2)CC1` [Example 20, {1-[4-(1-Cyclohexyl-1H-benzimidazol-5-yl)-1H-imidazo[4,5-c]pyridin-6-yl]-4-hydroxymethyl-piperidin-4-yl}-methanol]: 6.54, 7.25, 7.92 and 6.77.
Turning to `c1nc2c(-c3ccc4c(c3)ncn4C3CCCCC3)nc(N3CC4CNCC4C3)cc2[nH]1` (centres unmarked) [Example 24, 4-(1-Cyclohexyl-1H-benzimidazol-5-yl)-6-(hexahydro-pyrrolo[3,4-c]pyrrol-2-yl)-1H-imidazo[4,5-c]pyridine], the pIC50 at S. Agalactiae DltA was 5.28; on E. feacalis DltA it was 6.24; on S. aureus DltA, 7.42; at E. feacium DltA, 5.43.
The matching figures for `OCC1(CO)CCN(c2cc(-c3ccc4c(c3)ncn4C3CCCCC3)c3nc[nH]c3c2)CC1` [Example 34, [1-(1′-Cyclohexyl-1H,1′H-[4,5′]bibenzimidazolyl-6-yl)-4-hydroxymethyl-piperidin-4-yl]-methanol]: 6.42, 7.10, 6.96 and 6.77.
The corresponding values for `c1nc2c(-c3ccc4c(c3)ncn4C3CCCCC3)cc(N3CC4CNCC4C3)cc2[nH]1` (centres unmarked) [Example 36, 1′-Cyclohexyl-6-(hexahydro-pyrrolo[3,4-c]pyrrol-2-yl)-1H,1′H-[4,5′]bibenzimidazolyl] are 5.42, 6.77, 7.10 and 5.96.
In the case of `O=[N+]([O-])c1c(N2CC[C@H](CO)C2)cc(-c2ccc3c(c2)ncn3C2CCCCC2)c2nc[nH]c12` [Example 43, [(S)-1-(1′-Cyclohexyl-7-nitro-1H,1′H-[4,5′]bibenzimidazolyl-6-yl)-pyrrolidin-3-yl]-methanol], the pIC50 is 5.20 on S. Agalactiae DltA, 7.52 on E. feacalis DltA, 7.07 on S. aureus DltA and 6.77 on E. feacium DltA.
The corresponding values for `O=[N+]([O-])c1c(N2CC[C@H](CO)[C@@H](O)C2)cc(-c2ccc3c(c2)ncn3C2CCCCC2)c2nc[nH]c12` [Example 44, (3R,4R)-1-(1′-Cyclohexyl-7-nitro-1H,1′H-[4,5′]bibenzimidazolyl-6-yl)-4-hydroxymethyl-piperidin-3-ol] are 5.82, 7.15, 7.31 and 7.02.
The matching figures for `O=C(O)c1c(N2CC[C@H](CO)C2)cc(-c2ccc3c(c2)ncn3C2CCCCC2)c2nc[nH]c12` [Example 55, 1′-Cyclohexyl-6-((S)-3-hydroxymethyl-pyrrolidin-1-yl)-1H,1′H-[4,5′]bibenzimidazolyl-7-carboxylic acid]: 6.12, 6.82, 6.60 and 6.44.
The matching figures for `N#Cc1c(N2CC[C@H](CO)C2)cc(-c2ccc3c(c2)ncn3C2CCCCC2)c2nc[nH]c12` [Example 58, 1′-Cyclohexyl-6-((S)-3-hydroxymethyl-pyrrolidin-1-yl)-1H,1′H-[4,5′]bibenzimidazolyl-7-carbonitrile]: 5.07, 6.92, 6.74 and 6.64.
Turning to `N#Cc1c(N2CCC(CO)(CO)CC2)cc(-c2ccc3c(c2)ncn3C2CCCCC2)c2nc[nH]c12` [Example 61, 6-(4,4-Bis-hydroxymethyl-piperidin-1-yl)-1′-cyclohexyl-1H,1′H-[4,5′]bibenzimidazolyl-7-carbonitrile], the pIC50 is 5.33 on S. Agalactiae DltA, 6.96 on E. feacalis DltA, 6.62 at S. aureus DltA and 6.64 on E. feacium DltA.
Regarding `NC(=O)c1c(F)cc(-c2ccc3c(c2)ncn3C2CCCCC2)c2nc[nH]c12` [Example 63, 1′-Cyclohexyl-6-fluoro-1H,1′H-[4,5′]bibenzimidazolyl-7-carboxamide], the pIC50 was 5.70 at S. Agalactiae DltA, 7.37 at E. feacalis DltA, 7.31 on S. aureus DltA and 7.08 at E. feacium DltA.
With `CCn1cnc2cc(-c3cc(OCCN(C)C)c(C(N)=O)c4[nH]cnc34)ccc21` [Example 198, 6-(2-Dimethylamino-ethoxy)-1′-ethyl-1H,1′H-[4,5′]]bibenzimidazolyl-7-carboxamide methanesulfonic acid salt], the pIC50 at S. Agalactiae DltA was 5.85.
